Assay results taken from patent US8247211B2, “Glycopeptide antibiotics” (American Cyanamid Company, priority 2001, dated 2012).
≈ marks a conversion by molar mass, not a printed value.

Experiments:
Assay in all cases: In vitro antibacterial evaluation: minimum inhibitory concentration (MIC), broth dilution method
Type in all cases: cell-based
Escherichia coli = conditions: 18 hours at 35° C.
Method in brief: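 First, organisms are seeded at 5×10^5 CFU/mL into Muller-Hinton II […]. Next, antibiotic is applied across 64-0.06 μg/mL by broth dilution (NCCLS M7-A2). Finally, the lowest inhibitory concentration is recorded as MIC.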

Staphylococcus sp. = tested on: Staphylococcus sp.
Method in brief: (§1)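 Inoculum: 5×10^5 CFU/mL. Range: 64-0.06 μg/mL. Medium: Muller-Hinton II […]; NCCLS M7-A2 broth dilution. Endpoint: lowest concentration inhibiting growth. Strains include methicillin-, penicillin- and/or vancomycin-resistant clinical isolates.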

Streptococcus sp. = conditions: 18 hours at 35° C.
Method in brief: as §1

Enterococcus sp. = conditions: 18 hours at 35° C.
Method in brief: as §1

[1] = broth dilution, inoculum 5×10^5 CFU/mL

MIC Escherichia coli (ATCC 25922) (Escherichia coli; Escherichia coli (ATCC 25922)): 64 µg/mL (≈ 39.7 µM)
MIC Escherichia coli (GC 4559) (Escherichia coli; Escherichia coli (GC 4559)): 64 µg/mL (≈ 39.7 µM)
MIC Escherichia coli (GC 4560) (Escherichia coli; Escherichia coli (GC 4560)): 4 µg/mL (≈ 2.48 µM)
MIC Staphylococcus aureus (ATCC 29213) (Staphylococcus sp.; strain ATCC 29213): 2 µg/mL (≈ 1.24 µM)
MIC Staphylococcus aureus (GC 1131) (Staphylococcus sp.; strain GC 1131): 2 µg/mL (≈ 1.24 µM)
MIC Staphylococcus aureus (GC 3051) (Staphylococcus sp.; strain GC 3051): 2 µg/mL (≈ 1.24 µM)
MIC Staphylococcus aureus (GC 3053) (Staphylococcus sp.; strain GC 3053): 2 µg/mL (≈ 1.24 µM)
MIC Staphylococcus aureus (GC 4541) (Staphylococcus sp.; strain GC 4541): 2 µg/mL (≈ 1.24 µM)
MIC Staphylococcus aureus (GC 4542) (Staphylococcus sp.; strain GC 4542): 1 µg/mL (≈ 0.62 µM)
MIC Staphylococcus aureus-SMITH (GC 4543) (Staphylococcus sp.; strain GC 4543): 2 µg/mL (≈ 1.24 µM)
MIC Staphylococcus aureus (GC 4544) (Staphylococcus sp.; strain GC 4544): 2 µg/mL (≈ 1.24 µM)
MIC Staphylococcus aureus (GC 4545) (Staphylococcus sp.; strain GC 4545): 2 µg/mL (≈ 1.24 µM)
MIC Coagulase Negative Staphylococcus (GC 4547) (Staphylococcus sp.; strain GC 4547): 2 µg/mL (≈ 1.24 µM)
MIC Coagulase Negative Staphylococcus (GC 4548) (Staphylococcus sp.; strain GC 4548): 1 µg/mL (≈ 0.62 µM)
MIC Coagulase Negative Staphylococcus (GC 4549) (Staphylococcus sp.; strain GC 4549): 1 µg/mL (≈ 0.62 µM)
MIC Coagulase Negative Staphylococcus (GC 4551) (Staphylococcus sp.; strain GC 4551): 2 µg/mL (≈ 1.24 µM)
MIC Coagulase Negative Staphylococcus (GC 6257) (Staphylococcus sp.; strain GC 6257): 0.5 µg/mL (≈ 0.31 µM)
MIC Streptococcus agalactiae (GC 4564) (Streptococcus sp.; Streptococcus agalactiae (GC 4564)): <0.06 µg/mL
MIC Streptococcus pneumoniae (ATCC 6301) (Streptococcus sp.; Streptococcus pneumoniae (ATCC 6301)): <0.06 µg/mL
MIC Streptococcus pneumoniae (GC 1894) (Streptococcus sp.; Streptococcus pneumoniae (GC 1894)): <0.06 µg/mL
MIC Streptococcus pneumoniae (GC 4565) (Streptococcus sp.; Streptococcus pneumoniae (GC 4565)): <0.06 µg/mL
MIC Streptococcus pyogenes (GC 4563) (Streptococcus sp.; Streptococcus pyogenes (GC 4563)): 0.25 µg/mL (≈ 0.155 µM)
MIC Streptococcus agalactiae (GC 4564) (Streptococcus sp.; [1]): <0.06 µg/mL
MIC Streptococcus pneumoniae (ATCC 6301) (Streptococcus sp.; [1]): <0.06 µg/mL
MIC Streptococcus pneumoniae (GC 1894) (Streptococcus sp.; [1]): <0.06 µg/mL
MIC Streptococcus pneumoniae (GC 4565) (Streptococcus sp.; [1]): <0.06 µg/mL
MIC Streptococcus pyogenes (GC 4563) (Streptococcus sp.; [1]): 0.25 µg/mL (≈ 0.155 µM)
MIC Enterococcus avium (GC 4558) (Enterococcus sp.; Enterococcus avium (GC 4558)): 2 µg/mL (≈ 1.24 µM)
MIC Enterococcus faecalis (ATCC 29212) (Enterococcus sp.; Enterococcus faecalis (ATCC 29212)): 2 µg/mL (≈ 1.24 µM)
MIC Enterococcus faecalis (GC 2242) (Enterococcus sp.; Enterococcus faecalis (GC 2242)): 2 µg/mL (≈ 1.24 µM)
MIC Enterococcus faecalis (GC 2691) (Enterococcus sp.; Enterococcus faecalis (GC 2691)): 2 µg/mL (≈ 1.24 µM)
MIC Enterococcus faecalis (GC 3059) (Enterococcus sp.; Enterococcus faecalis (GC 3059)): 2 µg/mL (≈ 1.24 µM)
MIC Enterococcus faecalis (GC 4552) (Enterococcus sp.; Enterococcus faecalis (GC 4552)): 2 µg/mL (≈ 1.24 µM)
MIC Enterococcus faecalis (GC 4553) (Enterococcus sp.; Enterococcus faecalis (GC 4553)): 2 µg/mL (≈ 1.24 µM)
MIC Enterococcus faecalis (GC 4554) (Enterococcus sp.; Enterococcus faecalis (GC 4554)): 2 µg/mL (≈ 1.24 µM)
MIC Enterococcus faecalis (GC 6189) (Enterococcus sp.; Enterococcus faecalis (GC 6189)): 1 µg/mL (≈ 0.62 µM)
MIC Enterococcus faecium (GC 2243) (Enterococcus sp.; Enterococcus faecium (GC 2243)): 2 µg/mL (≈ 1.24 µM)
MIC Enterococcus faecium (GC 4556) (Enterococcus sp.; Enterococcus faecium (GC 4556)): 2 µg/mL (≈ 1.24 µM)
MIC Enterococcus faecium (GC 4557) (Enterococcus sp.; Enterococcus faecium (GC 4557)): 2 µg/mL (≈ 1.24 µM)
MIC Enterococcus avium (GC 4558) (Enterococcus sp.; [1]): 2 µg/mL (≈ 1.24 µM)
MIC Enterococcus faecalis (ATCC 29212) (Enterococcus sp.; [1]): 2 µg/mL (≈ 1.24 µM)
MIC Enterococcus faecalis (GC 2242) (Enterococcus sp.; [1]): 2 µg/mL (≈ 1.24 µM)
MIC Enterococcus faecalis (GC 2691) (Enterococcus sp.; [1]): 2 µg/mL (≈ 1.24 µM)
MIC Enterococcus faecalis (GC 3059) (Enterococcus sp.; [1]): 2 µg/mL (≈ 1.24 µM)
MIC Enterococcus faecalis (GC 4552) (Enterococcus sp.; [1]): 2 µg/mL (≈ 1.24 µM)
MIC Enterococcus faecalis (GC 4553) (Enterococcus sp.; [1]): 2 µg/mL (≈ 1.24 µM)
MIC Enterococcus faecalis (GC 4554) (Enterococcus sp.; [1]): 2 µg/mL (≈ 1.24 µM)
MIC Enterococcus faecalis (GC 6189) (Enterococcus sp.; [1]): 1 µg/mL (≈ 0.62 µM)
MIC Enterococcus faecium (GC 2243) (Enterococcus sp.; [1]): 2 µg/mL (≈ 1.24 µM)
MIC Enterococcus faecium (GC 4556) (Enterococcus sp.; [1]): 2 µg/mL (≈ 1.24 µM)
MIC Enterococcus faecium (GC 4557) (Enterococcus sp.; [1]): 2 µg/mL (≈ 1.24 µM)
SMILES: CC(c1ccccc1)C1NC(=O)CNC(=O)C(CO)NC(=O)C(C(O)C2CNC(=N)N2C2OC(CO)C(O)C(O)C2O)NC(=O)C(C(O)C2CNC(=N)N2)NC(=O)C(Cc2ccc(OC3OC(CO)C(OC4OC5COC(c6ccc(C(=O)c7ccc(I)cc7)cc6)OC5C(O)C4O)C(O)C3O)cc2)NC1=O (stereo not shown) [Example 186]
MIC Staphylococcus haemolyticus (GC 4546) (Staphylococcus sp.; strain GC 4546): 1 µg/mL (≈ 0.62 µM)
